From patent US9630947B2, “Therapeutic compounds and related methods of use” (OTSUKA PHARMACEUTICAL CO., LTD., priority 2009, dated 2017)

Molecular target: T1, purified STEP46 enzyme (Homo sapiens, UniProt P54829)
T1 sequence (P54829 1-565): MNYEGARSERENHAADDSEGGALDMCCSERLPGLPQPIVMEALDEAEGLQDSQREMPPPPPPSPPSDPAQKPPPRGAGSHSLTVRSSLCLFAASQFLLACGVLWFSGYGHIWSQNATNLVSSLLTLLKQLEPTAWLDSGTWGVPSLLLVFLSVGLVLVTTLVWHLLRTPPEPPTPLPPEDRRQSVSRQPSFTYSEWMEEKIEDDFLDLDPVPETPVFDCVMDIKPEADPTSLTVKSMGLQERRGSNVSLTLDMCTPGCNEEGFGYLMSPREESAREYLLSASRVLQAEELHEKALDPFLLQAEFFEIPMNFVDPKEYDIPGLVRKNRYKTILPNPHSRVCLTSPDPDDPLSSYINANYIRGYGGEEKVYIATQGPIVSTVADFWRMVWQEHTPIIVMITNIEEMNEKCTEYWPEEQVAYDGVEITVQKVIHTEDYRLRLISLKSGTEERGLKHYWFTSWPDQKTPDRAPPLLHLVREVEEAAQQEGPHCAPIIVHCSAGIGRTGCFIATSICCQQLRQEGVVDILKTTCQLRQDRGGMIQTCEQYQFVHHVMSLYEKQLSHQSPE
Test: STEP46 biochemical assay (DiFMUP fluorescence phosphatase assay)
Details: DiFMUP 10 μM, read-out: STEP IC50
Procedure: STEP46 Biochemical Assays
Serial dilutions of compounds were performed in 100% DMSO and 1 uL of compounds were dispensed into 384-well black polystyrene plates (Corning, NY). Compounds were incubated with 24 uL of buffer containing 50 mM Hepes, 1 mM DTT, 0.02% Brij35, 1 ng/well purified STEP46 enzyme for 30 min at room temperature. The reaction was initiated by addition of 25 uL of DiFMUP (6, 8-difluoro-4-methylumbelliferyl phosphate) (InVitrogen, CA) with a final concentration of 10 μM and incubated at 27° C. for 90 min. Final DMSO concentration is 2%. Plates were read with florescence intensity at excitation/emission of 360/460 nm using a PheraStar plate reader (BMG Labtech, NC).
Data were expressed as percentage (%) inhibition of enzyme activity. 0% inhibition is defined as the RFUs (relative fluorescence units) in the absence of compounds and 100% inhibition is defined as RFUs in the absence of STEP46 enzyme. IC50 values of compounds with inhibitory activity against STEP46 were determined by GraphPad Prism (version 4.03) using four parameter logistic equation. Some compounds act as activators. For compounds showing STEP46 enzymatic activation, data are represented as percentage of inhibition but with negative values at three representative concentrations (25, 50 and 100 uM).

IC50, 1000 to 10000 nM:
CNc1nc(-c2cccnc2)nc2cc(-c3cccc(F)c3)ccc12 [Compound 1359]
COc1ccc2nc(-c3cccnc3)nc(Nc3ccc4sc(=O)[nH]c4c3)c2c1 [Compound 326]
CNc1nc(-c2cccnc2)nc2ccc(-c3cccc(OCCOC)c3)cc12 [Compound 1680, 6-(3-(2-methoxyethoxyl)phenyl)-N-methyl-2-(pyridin-3-yl)quinazolin-4-amine]
CN(C)c1ccc2nc(-c3ccnnc3)nc(Nc3ccc(F)c(Cl)c3)c2c1 [Compound 1152]
CNc1nc(-c2cccnc2)nc2c(C)c(-c3cc(F)ccc3F)ccc12 [Compound 1450]
COc1ccc2nc(-c3cccnc3)nc(Nc3nc(-c4ccccc4)c(C(N)=O)s3)c2c1 [Compound 1125]
CNc1nc(-c2cccnc2)nc2c(C)c(-c3cccc(F)c3F)ccc12 [Compound 1451]
COc1ccc2nc(-c3cccnc3)nc(Nc3nnc(-c4ccc(Br)cc4)s3)c2c1 [Compound 428]
COc1ccc2nc(-c3cnccn3)nc(Nc3ccc(F)c(Cl)c3)c2c1 [Compound 1191]
COc1ccc2nc(-c3cccnc3)nc(Nc3nc(-c4ccc(Cl)cc4)cs3)c2c1 [Compound 400]
CCOc1ccc2nc(-c3cccnc3)nc(Nc3nc(-c4ccccc4)cs3)c2c1 [Compound 473]
COc1ccc2nc(-c3cccnc3)nc(Nc3ccc4oc(=O)[nH]c4c3)c2c1 [Compound 317]
CNc1nc(-c2cccnc2)nc2c(C)cc(-c3ccc(C#N)cc3)cc12 [Compound 1279]
Fc1ccc(-c2ccc3c(Nc4ccc(F)c(Cl)c4)nc(-c4cccnc4)nc3c2)cc1F [Compound 674]
N#Cc1cccc(Nc2nc(-c3cnccn3)nc3ccc(Cl)cc23)c1 [Compound 1158]
CN(C)C(=O)COc1ccc2nc(-c3cccnc3)nc(Oc3ccc(F)c(Cl)c3)c2c1 [Compound 846]
CN(C)c1nc(-c2cccnc2)nc2ccc(-c3ccc([N+](=O)[O-])cc3)cc12 [Compound 1336]
Cc1cc(Cl)cc2c(Nc3ccccc3C(=O)O)nc(-c3cnccn3)nc12 [Compound 1227]
COc1ccc2nc(-c3cccnc3)nc(Nc3ccc4ccc(=O)oc4c3)c2c1 [Compound 330]
COc1ccc2nc(-c3cccnc3)nc(Nc3nc(-c4cccc(F)c4)cs3)c2c1 [Compound 441]
CCOc1ccc2nc(-c3cccnc3)nc(Nc3ccc4ccsc4c3)c2c1 [Compound 315]
COc1ccc2nc(-c3ccnnc3)nc(Nc3ccccc3C(N)=O)c2c1 [Compound 1198]
CCOc1ccc2nc(-c3cccnc3)nc(Nc3nc(-c4ccc(Cl)cc4)cs3)c2c1 [Compound 467]
COc1ccc2nc(-c3cccnc3)nc(Nc3ccc4ncsc4c3)c2c1 [Compound 296]
CNc1nc(-c2cccnc2)nc2cc(-c3ccc(C)cc3)ccc12 [Compound 1362]
CNc1nc(-c2cccnc2)nc2cc(-c3cc(F)ccc3F)ccc12 [Compound 1601]
COc1cccc(-c2ccc3nc(-c4cccnc4)nc(Oc4ccccc4C(N)=O)c3c2)c1 [Compound 393]
COc1ccccc1-c1ccc2nc(-c3cccnc3)nc(Nc3ccc(F)c(Cl)c3)c2c1 [Compound 637]
Fc1ccc(Nc2nc(-c3cnccn3)nc3ccc(Cl)cc23)cc1Cl [Compound 1159]
COc1ccc2nc(-c3cccnc3)nc(Nc3ccc(C)c(C)c3)c2c1 [Compound 923]
COc1ccc(-c2ccc3c(Nc4ccc(F)c(Cl)c4)nc(-c4cccnc4)nc3c2)cc1 [Compound 680]
FC(F)Oc1cc(Cl)cc(Nc2nc(-c3ccnnc3)nc3ccccc23)c1 [Compound 1212]
CN(C)c1nc(-c2cccnc2)nc2ccc(-c3ccccc3C#N)cc12 [Compound 1337]
O=[N+]([O-])c1ccccc1-c1ccc2nc(-c3cccnc3)nc(Nc3ccc(F)c(Cl)c3)c2c1 [Compound 640]
CNc1nc(-c2cccnc2)nc2ccc(-c3cccc(-c4ccccc4)c3)cc12 [Compound 1346]

IC50, < 1000 nM:
CNc1nc(-c2cccnc2)nc2ccc(-c3ccc(C(C)=O)cc3OC)cc12 [Compound 1382]
COc1ncc(-c2ccc3nc(-c4cccnc4)nc(Nc4ccc(F)c(Cl)c4)c3c2)cn1 [Compound 666]
COc1ccc2nc(-c3cccnc3)nc(Nc3nc(-c4ccccc4)c(C)s3)c2c1 [Compound 456]
COc1ccc2nc(-c3cccnc3)nc(Nc3nc(-c4ccc(C#N)cc4)cs3)c2c1 [Compound 448]
NC(=O)c1ccccc1Nc1nc(-c2cccnc2)nc2cc(-c3cccc(F)c3)ccc12 [Compound 700]
COc1ccc2nc(-c3cccnc3)nc(Nc3ccc4ccc(=O)[nH]c4c3)c2c1 [Compound 325]
Cc1ccc(-c2ccc3c(Nc4ccc(F)c(Cl)c4)nc(-c4cccnc4)nc3c2)cc1 [Compound 695]
Fc1ccc(Nc2nc(-c3cccnc3)nc3ccc(-c4ccc5c(c4)OCO5)cc23)cc1Cl [Compound 662]
COc1ccc2nc(-c3cccnc3)nc(Nc3nc(-c4ccccc4C)cs3)c2c1 [Compound 444]
COc1ccc2nc(-c3cccnc3)nc(Nc3nc(-c4ccccc4F)cs3)c2c1 [Compound 439]
COc1ccc2nc(-c3cccnc3)nc(Nc3nc(-c4c(F)cccc4F)cs3)c2c1 [Compound 459]
COc1ccc2nc(-c3cccnc3)nc(Nc3nc(-c4ccc(C)cc4)cs3)c2c1 [Compound 429]
COc1ccc2nc(-c3cccnc3)nc(Nc3nc(-c4ccccc4Br)cs3)c2c1 [Compound 451]
Fc1ccc(Nc2nc(-c3cccnc3)nc3ccc(-c4cncnc4)cc23)cc1Cl [Compound 652]
Fc1cccc(-c2ccc3c(Nc4ccc(F)c(Cl)c4)nc(-c4cccnc4)nc3c2)c1 [Compound 688]
CCOc1cccc(-c2ccc3nc(-c4cccnc4)nc(Nc4ccc(F)c(Cl)c4)c3c2)c1 [Compound 657]
COc1ccc2nc(-c3cccnc3)nc(Nc3nc(-c4cccc(C#N)c4)cs3)c2c1 [Compound 453]

IC50, > 10000 nM:
CC(=O)c1ccc(-c2ccc3nc(-c4cccnc4)nc(N)c3c2)cc1 [Compound 1327]
COc1ccc2nc(-c3cccnc3)nc(Nc3ccc4c(c3)OC(F)(F)C(F)(F)O4)c2c1 [Compound 322]
FC1(F)Oc2ccc(Nc3nc(-c4cncnc4)nc4ccccc34)cc2O1 [Compound 1173]
CNc1c(-c2ccc(C#N)cc2)ccc2nc(-c3cccnc3)nc(C)c12 [Compound 1424]
COc1ccc2nc(-c3cccnc3)nc(Nc3ccc(Br)cc3)c2c1 [Compound 421]
COc1ccc2nc(-c3cccnc3)nc(Nc3cccc(-c4ccccc4)c3)c2c1 [Compound 426]
CNc1c(-c2cccc(C#N)c2)ccc2nc(-c3cccnc3)nc(C)c12 [Compound 1423]
